Earlier results on seven compounds are cited in patent US20210369737A1, “PROSTATE FUNCTION SUPPORT FORMULA” (Innovus Pharmaceuticals, Inc., priority 2017, published 2021).

One data set relates to prostate cancer cell. The following applies: in vitro.
The test system of a further data set is prostate tumors. The following applies: TRAMP mice.
The subject of data set [1] is prostate cancer cells.
The subject of another data set is PSA. The settings on record: clinical trials.
For data set [2] the following is noted: in vivo.
For data set [3], the system named is human prostate tumor in vivo xenografts.
Data set [4] relates to prostate cancer cells. The following applies: in vitro.
In the next data set the target is T1, androgen receptor (Homo sapiens, UniProt P10275).
T1 sequence (P10275 1-920): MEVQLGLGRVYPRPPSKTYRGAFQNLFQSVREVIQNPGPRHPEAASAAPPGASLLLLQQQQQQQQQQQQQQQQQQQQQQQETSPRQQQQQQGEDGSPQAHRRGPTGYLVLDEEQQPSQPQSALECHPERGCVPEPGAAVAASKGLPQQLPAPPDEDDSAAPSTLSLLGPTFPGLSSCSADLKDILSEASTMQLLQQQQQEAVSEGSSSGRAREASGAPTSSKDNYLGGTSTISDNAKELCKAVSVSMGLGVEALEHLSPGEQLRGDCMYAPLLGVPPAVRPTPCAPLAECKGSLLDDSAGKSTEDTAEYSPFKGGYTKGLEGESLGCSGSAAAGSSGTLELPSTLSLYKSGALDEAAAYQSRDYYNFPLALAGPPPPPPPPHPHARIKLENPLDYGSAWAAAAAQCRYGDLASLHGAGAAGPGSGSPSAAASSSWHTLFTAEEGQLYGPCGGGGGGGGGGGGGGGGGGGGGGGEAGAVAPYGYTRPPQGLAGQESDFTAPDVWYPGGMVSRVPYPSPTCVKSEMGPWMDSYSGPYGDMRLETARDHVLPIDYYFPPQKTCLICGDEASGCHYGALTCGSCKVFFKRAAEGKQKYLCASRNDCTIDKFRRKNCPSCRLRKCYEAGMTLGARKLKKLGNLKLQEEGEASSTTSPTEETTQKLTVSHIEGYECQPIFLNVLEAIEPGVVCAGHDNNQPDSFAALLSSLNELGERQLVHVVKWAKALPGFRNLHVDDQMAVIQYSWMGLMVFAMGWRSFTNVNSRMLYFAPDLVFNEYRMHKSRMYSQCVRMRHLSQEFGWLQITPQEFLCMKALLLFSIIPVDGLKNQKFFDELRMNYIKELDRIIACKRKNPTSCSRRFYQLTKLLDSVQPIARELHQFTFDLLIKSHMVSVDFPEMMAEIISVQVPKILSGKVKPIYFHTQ
The settings on record: in vitro.

The test system of a further data set is prostate cancer. The following applies: in vitro and in vivo.
Data set [5] deals with prostate cancer and BPH cells. The settings on record: in vitro.

For the compound `CC[C@H](CC[C@@H](C)[C@H]1CC[C@H]2[C@@H]3CC=C4C[C@@H](O)CC[C@]4(C)[C@H]3CC[C@]12C)C(C)C` [Beta-sitosterols, Beta-Sitosterol], in the data set on BPH (clinical), the “levels of DHT” value is listed as “decrease levels of DHT” and the urinary flow result is “significantly improve urinary flow”. In addition, the “maintenance of improvements in follow-up” value in the data set on BPH (follow-up study, observation) is listed as 18 months. For the same compound, in the data set with BPH (versus placebo, after three and six months of treatment), the symptom scores result is recorded as “significant decrease in symptom scores”.
As for `O=C(O[C@@H]1Cc2c(O)cc(O)cc2O[C@@H]1c1cc(O)c(O)c(O)c1)c1cc(O)c(O)c(O)c1` [EGCG], in the data set on prostate cancer cell, the androgen antagonism entry is recorded as “acts as an anti-androgen antagonist”; the “prostate cancer cell proliferation and PSA production” value is “suppresses prostate cancer cell proliferation and production of prostate-specific antigen (PSA)”. Moreover, the “tumor size and development of prostate tumors” value in the data set on prostate tumors was “reduces tumor size and delays development of prostate tumors”.
Regarding `CC(C)=CCC/C(C)=C/C=C/C(C)=C/C=C/C(C)=C/C=C/C=C(C)/C=C/C=C(C)/C=C/C=C(\C)CCC=C(C)C` [Lycopene], the antitumorigenic effect entry in the data set on prostate cancer cells [1] (animal studies) is reported as “antitumorigenic effect”. Further, the “antioxidant response, proliferation, apoptosis, metastatic capacity of prostate cells” value in the data set on prostate cancer cells [1] (in vitro and in vivo) was “enhance the antioxidant response of prostate cells, inhibit proliferation, demonstrate chemopreventive effect induce apoptosis and decrease the metastatic capacity of prostate cancer cells”. Further, in the data set on PSA, the PSA levels result is recorded as “reduction of PSA levels”. Also, in [2], the safety status result was “generally recognized as safe (GRAS)”.
For the compound `O=c1c(O)c(-c2ccc(O)c(O)c2)oc2cc(O)cc(O)c12` [Quercetin, 2-(3,4-dihydroxyphenyl)-3,5,7-trihydroxy-4H-chromen-4-one], the “prostate weight and anti-tumor activity” value in [3] (in vivo, in combination with finasteride) was “effective in vivo in combination with finasteride to reduce prostate weight and anti-tumor activity”. Moreover, the “effect on human prostate tumor xenografts” value in data set [3] (mice) is “has an effect on human prostate tumor in vivo xenografts”. The “symptoms in CP/CPPS” value in the data set on CP/CPPS (clinical) was “symptomatic improvement”. In addition, the IPSS entry in the data set on CP/CPPS (randomized, double-blind, placebo controlled clinical trial) is on record as “decrease in IPSS”. In addition, in the data set with prostate cancer cells [4], the “apoptosis and caspase activation” value is “promoted prostate cancer cells apoptosis and caspase activation”; the “prostate cancer cell proliferation” value is listed as “inhibits prostate cancer cell proliferation”.
For `[Se]` [Selenium], the “levels of p53” value on androgen receptor is recorded as “increase levels of p53”. In addition, the “activity of the androgen receptor” value at androgen receptor (prostate cancer cells) is reported as “decrease the activity of the androgen receptor”. The “prostate cancer risk, tumor progression, apoptosis” value in the data set on prostate cancer is “reduce risk of prostate cancer, suppress tumor progression and cell apoptosis”.
For the compound `[Zn]` [Zinc], the “apoptosis and antiproliferative effects” value in data set [5] is “induces apoptosis and antiproliferative effects”.
As to Vitamin E, in the data set on prostate cancer, the “prostate cancer risk, tumor progression, apoptosis” value is “reduce risk of prostate cancer, suppress tumor progression and cell apoptosis”.
